# Data as given in patent US6855711B1, “Pharmaceutical compositions comprising iron chelators for the treatment of neurodegenerative disorders and some novel iron chelators” (Yeda Research and Development Co. Ltd., priority 1999, dated 2005).
# Entries after “also recorded” stand apart in the source; their conditions may differ. Where two headings read alike, the source gives them in different places. Marks after values point to notes of the source that are not given here.
# Key:
# [1] = system: 6-OHDA-induced lesion of nigrostriatal dopamine neurons; experiment: Prevention of 6-OHDA-induced toxicity in rats (striatal biogenic amines and metabolites by HPLC); type: in vivo, rat
# Method: Male Sprague-Dawley rats, weighing 230-270 g, were housed in a controlled-temperature room with a standardized dark-light schedule (12/12 h) for 4 weeks. Rats were anesthetized with a mixture of 15 mg/kg of pentobarbital and 60 mg/kg of chloral hydrate. 6-OHDA (250 μg in 5 μl of 0.9% NaCl containing 0.2% ascorbic acid), the chelator 3 or 15 (200 μg in 5 μl), a combination of both (the chelator 3 or 15 15 min before 6-OHDA), or saline (5 μl) (control) was injected into the right cerebral ventricle using stereotactic techniques. The coordinates with bregma as the reference were D 0.8 mm, L 1.3 mm, and V 3.6 mm according to the atlas of Paxinos and Watson. Pargyline (50 mg/kg i.p.) and desmethylimipramine-HCl (25 mg/kg i.p.) were administered to all the rats 60 min before intracerebroventricular injection. Pargyline inhibits monoamine oxidase and thereby enhances the toxicity of 6-OHDA, and desmethylimipramine provides protection for central noradrenergic neurons from the toxin. All the animals received a daily injection of isotonic glucose (4 ml/day i.p.) until they regained their original body weight. Behavioral tests were performed 4 weeks after operation, commencing between 8 and 10 a.m. The rats were killed after the behavioral studies. Desferal was obtained from Ciba Geigy, and other chemicals were from Sigma (St. Louis, Mo., U.S.A.).
# Norepinephrine (NE), DA, and metabolite levels were measured as follows: four weeks postoperatively, rats were killed by decapitation, and the brains were rapidly removed. The striata were dissected on an ice-chilled glass plate and quickly frozen in liquid nitrogen. The endogenous levels of NE, DA, 3,4-dihydroxyphenylacetic acid (DOPAC), and homovanillic acid (HVA) were determined by HPLC with electrochemical detection (Ben-Shachar et al. (1991) Eur. J. Pharmacol. 202:177-83). All data are expressed as mean±SEM values. Statistical analysis was carried out by analysis of variance with multiple comparisons followed by Student's t test.
# Striatal dopamine and its metabolites DOPAC and HVA concentrations, which were determined by HPLC, served as a criteria for the extent of the damage caused by 6-OHDA in the presence or absence of the iron chelators. […] Dopamine turnover was normal in rats pretreated with iron chelators (Table 1).
# Based on confirmation properties of the two iron chelators 3 and 15, it was considered that Compound 15 has a better chance to cross the blood-brain-barrier (BBB) and the studies were continued with Compound 15. In order to decrease to minimum the possibility of a direct interaction between the chelator and the toxin as a cause for the protection, and to try to find a smaller effective dose of the chelator, 1 μg Compound 15 was injected intraventricularly prior to the injection of 250 μg 6-OHDA.
# The main goal at this stage of research was to find out whether Compound 15 given peripherally would be able to prevent 6-OHDA-induced toxicity. In other words the question was whether the chelator will stay stable in the periphery, cross the BBB and […]. Control group received phosphate buffer pH−6.4 0.1M. On the 11th day, the rats of both groups were injected intraventricularly with 250 μg 6-OHDA.
# [2] = system: 6-OHDA-induced dopaminergic neuron degeneration; conditions: cited from earlier work
# [3] = system: iron-induced lipid peroxidation (MDA formation) in rat brain cortex homogenates; experiment: Prevention of iron-induced lipid peroxidation (MDA formation, TBA method) in rat brain cortex homogenates; type: biochemical; conditions: 10^−3M chelator; for reduction of iron-induced MDA formation: 10^−4M ferric chloride
# Method: The ability of the compounds of the invention to prevent lipid peroxidation in brain tissue was first screened in rat brain homogenates in vitro by a method involving the detection of free radicals performed by […] and measurement of the MDA formation, as described by D. Ben-Shachar et al. (1991) J. Neurochem. 57: 1609-14. In this method, brain cortex homogenates are prepared in sucrose and incubated alone to determine basal lipid peroxidation, or incubated after the addition of Fe2(SO4)3 or FeCl3 for Fe-induction of maximum free-radical formation, and in the presence of the iron chelators to be tested. After addition of TBA, lipid peroxidation is assayed by measurement of MDA formation.
# Brain cortex homogenates (10% wt/vol) from male Wistar rats were prepared in 0.3M sucrose and incubated in air as described (Rehncrona et al., (1980) J. Neurochem. 34: 1630-38). Aliquots (0.1 ml) of homogenate were incubated alone at 30° C. for 90 min to determine basal lipid peroxidation, or incubated after the addition of 10^−4 Fe2(SO4), or FeCl3 and in the presence of 10^−3M iron chelator of formula I or II. For the assay, to 0.3 ml of the homogenate there were added 0.2 ml of 8% SDS, 1.5 ml of 20% acetic acid pH 3.0-3.5, 1.5 ml of 0.8% thiobarbituric acid (TBA) and 0.5 ml of H2O2×2, the mixture was incubated at 95° C. for 60 min, cooled and lipid peroxidation was assayed by measurement of malondialdehyde formation at 532 nm, as described (Dexter et al. (1989) J. Neurobiochem. 52: 381-89). Standard curve: 1,1,3,3-tetraethoxypropane 0.1-25 nmol in 0.3 ml.
# In another experiment, the Compounds 3, 7, 9-17 and 26 were examined for their ability to inhibit lipid peroxidation in vitro by measuring their capability to inhibit MDA formation in the presence of 10^−4M FeCl3 in rat brain homogenates. Ferric chloride(10^−4M)-induced lipid peroxidation, as measured by MDA formation in rat cerebral cortex homogenates, was inhibited to a different degree by 10^−3M of the various chelators.
# [4] = Table 1: 200 μg chelator intraventricular prior to 250 μg 6-OHDA (Comb.), 6-OHDA = 250 μg 6-OHDA alone
# [5] = Table 1: 200 μg chelator intraventricular prior to 250 μg 6-OHDA (Comb.), 6-OHDA = 250 μg 6-OHDA alone, mean±SEM
# [6] = Table 2: 1 μg chelator 15 intraventricular prior to 250 μg 6-OHDA (Comb.), 6-OHDA = 250 μg 6-OHDA alone
# [7] = Table 3: chelator 15 5 mg/Kg/day i.p. for 10 days + 250 μg 6-OHDA intraventricular (Comb.), 6-OHDA = 250 μg 6-OHDA without chelator
# [8] = intracerebroventricular 6-OHDA (250 μg)
smiles,measurement,setting,value
"CC(=O)c1cc(CN2CCN(CCO)CC2)ccc1O [Compound 5, 2-acetyl-4-[4-(2-hydroxyethyl)piperazin-1-yl-methyl]phenol]",melting point,,72 to 75 °C
"NCCc1cc(O)c(O)cc1O [Compound 6-OHDA, 6-hydroxydopamine]",decrease in striatal dopamine levels,"[1]; 250 μg 6-OHDA intraventricular, rats",80%
same,(DOPAC + HAV)/DA (dopamine turnover),[1]; [4],0.202
same,5-HIAA in rat striatum,[1]; [5],3.76 ± 0.20 pmol/mg tissue
same,5-HT in rat striatum,[1]; [5],4.00 ± 0.35 pmol/mg tissue
same,DA in rat striatum,[1]; [5],19.93 ± 5.0^c pmol/mg tissue
same,DOPAC in rat striatum,[1]; [5],1.79 ± 0.25^a pmol/mg tissue
same,HVA in rat striatum,[1]; [5],2.24 ± 0.23 pmol/mg tissue
same,NE in rat striatum,[1]; [5],5.0 ± 0.1 pmol/mg tissue
same,5-HIAA in rat striatum,[1]; [6],6.29 ± 0.65 pmol/mg tissue
same,5-HT in rat striatum,[1]; [6],3.22 ± 0.42 pmol/mg tissue
same,(DOPAC + HAV)/DA (dopamine turnover),[1]; [6],0.14
same,DA in rat striatum,[1]; [6],12.93 ± 3.3^a pmol/mg tissue
same,DOPAC in rat striatum,[1]; [6],0.76 ± 0.11^a pmol/mg tissue
same,HVA in rat striatum,[1]; [6],1.10 ± 0.21^a pmol/mg tissue
same,NE in rat striatum,[1]; [6],1.1 ± 0.1 pmol/mg tissue
same,5-HIAA in rat striatum,[1]; [7],1.57 ± 0.07 pmol/mg tissue
same,5-HT in rat striatum,[1]; [7],2.60 ± 0.15 pmol/mg tissue
same,(DOPAC + HAV)/DA (dopamine turnover),[1]; [7],0.16
same,DA in rat striatum,[1]; [7],9.69 ± 2.63^a pmol/mg tissue
same,DOPAC in rat striatum,[1]; [7],0.51 ± 0.11^A pmol/mg tissue
same,HVA in rat striatum,[1]; [7],1.05 ± 0.19^A pmol/mg tissue
same,NE in rat striatum,[1]; [7],1.22 ± 0.04 pmol/mg tissue
same,increase in DA release as indicated by the HVA/DA ratio,[2]; [8],2.5 fold
same,reduction in striatal tissue content of DOPAC,[2]; [8],79%
same,reduction in striatal tissue content of HVA,[2]; [8],70%
same,reduction in striatal tissue content of dopamine (DA),[2]; [8],88%
"O=C(CCC(CN(CC(=O)OCc1ccccc1)CC(=O)OCc1ccccc1)N(CC(=O)OCc1ccccc1)CC(=O)OCc1ccccc1)NCCN1CCN(C(=O)OCc2ccccc2)CC1 (stereo not shown) [Compound 1, N-[2-(4-carbobenzoxypiperazin-1-yl)ethyl]-4,5-bis[bis(benzyloxycarbonylmethyl)amino]valeramide]",reduction of iron-induced MDA formation,[3],~50%
Cl.Cl.Cl.Cl.Oc1ccc(CN2CCN(Cc3ccc(O)c4ncccc34)CC2)c2cccnc12,melting point,,227 to 228 °C
Cl.Cl.Cl.Oc1ccc(CN2CCNCC2)c2cccnc12,melting point,,232 to 234 °C (dec.)
"OCCN1CCN(Cc2ccc(O)c3ncccc23)CC1 [Compound 15, 5-(4-(2-hydroxyethyl)piperazin-1-ylmethyl)-8-hydroxyquinoline]","inhibition of MDA formation (lipid peroxidation), in words","[3]; 10^−4M FeCl3, rat cerebral cortex homogenates",most effective
same,reduction of iron-induced MDA formation,[3],~50%
same,"prevention of 6-OHDA-induced lesion, in words",[1]; 1 μg intraventricular prior to 250 μg 6-OHDA,effective in preventing 6-OHDA-induced lesion
same,"prevention of 6-OHDA-induced reduction in striatal dopamine and DOPAC concentrations, in words",[1]; 200 μg chelator intraventricular prior to 250 μg 6-OHDA,efficiently prevented
same,"protection against 6-OHDA toxicity, in words",[1]; 5 mg/Kg i.p. for 10 days before intraventricular 250 μg 6-OHDA,Partial but significant protection; also recorded: partially protected
same,(DOPAC + HAV)/DA (dopamine turnover),[1]; [4],0.15
same,5-HIAA in rat striatum,[1]; [5],4.48 ± 0.38 pmol/mg tissue
same,5-HT in rat striatum,[1]; [5],4.24 ± 0.43 pmol/mg tissue
same,DA in rat striatum,[1]; [5],33.8 ± 4.3 pmol/mg tissue
same,DOPAC in rat striatum,[1]; [5],2.45 ± 0.25 pmol/mg tissue
same,HVA in rat striatum,[1]; [5],2.67 ± 0.33 pmol/mg tissue
same,NE in rat striatum,[1]; [5],5.01 ± 0.1 pmol/mg tissue
same,5-HIAA in rat striatum,[1]; [6],4.98 ± 0.46 pmol/mg tissue
same,5-HT in rat striatum,[1]; [6],4.84 ± 0.45 pmol/mg tissue
same,(DOPAC + HAV)/DA (dopamine turnover),[1]; [6],0.08
same,DA in rat striatum,[1]; [6],62.9 ± 3.13 pmol/mg tissue
same,DOPAC in rat striatum,[1]; [6],2.49 ± 0.13 pmol/mg tissue
same,HVA in rat striatum,[1]; [6],2.77 ± 0.25 pmol/mg tissue
same,NE in rat striatum,[1]; [6],1.3 ± 0.12 pmol/mg tissue
same,5-HIAA in rat striatum,[1]; [7],1.59 ± 0.16 pmol/mg tissue
same,5-HT in rat striatum,[1]; [7],2.6 ± 0.31 pmol/mg tissue
same,(DOPAC + HAV)/DA (dopamine turnover),[1]; [7],0.15
same,DA in rat striatum,[1]; [7],24.4 ± 4.4^ab pmol/mg tissue
same,DOPAC in rat striatum,[1]; [7],1.4 ± 0.25 pmol/mg tissue
same,HVA in rat striatum,[1]; [7],2.28 ± 0.75 pmol/mg tissue
same,NE in rat striatum,[1]; [7],1.21 ± 0.4 pmol/mg tissue
CC(=O)N(O)CCCCCNC(=O)CCC(=O)N(O)CCCCCNC(=O)CCC(=O)N(O)CCCCCN [desferrioxamine],protection against the 6-OHDA-induced reduction in striatal DA content,[2]; 13 ng i.c.v. prior to 6-OHDA (250 μg),100%
same,protection against the 6-OHDA-induced reduction in striatal DA content,[2]; 130 ng i.c.v. prior to 6-OHDA (250 μg),~60%
same,"DA release (HVA/DA ratio), in words",[2]; desferrioxamine i.c.v. prior to 6-OHDA,normalization of DA release
same,"dopaminergic-related behavioral responses (spontaneous movements in a novel environment, rearing), in words","[2]; desferrioxamine-pretreated rats, 6-OHDA",almost normal behavioral responses
same,"protection against 6-OHDA-induced lesions of nigrostriatal dopamine neurons, in words",[2]; rats,protected
